Data on five molecules can be found in US12239629B2 (priority 2020, dated 2025).

Values after ≈ are worked out from the molar mass of the structure shown. Where two headings read alike, the source gives them in different places.

Data set [1] deals with SARS-CoV2. The data set can be described thus: In-vitro experiments, time of drug addition relative to infection. Particulars: added between 3 hours pre-infection and 3 hours after infection. It is filed as cell-based. The method, then:
Less inhibition was detected when the drug was added after 12 hours post-infection (Our observation was consistent with the report by Agostini et al regarding GS-5734 (remdesivir) (Agostini M L, Andres E L, Sims A C, Graham R L, Sheahan T P, Lu X, Smith E C, Case J B, Feng J Y, Jordan R, Ray AS, Cihlar T, Siegel D, Mackman R L, Clarke M O, Baric R S, Denison M R. 2018. Coronavirus susceptibility to the antiviral remdesivir (GS-5734) is mediated by the viral polymerase and the proofreading exoribonuclease. mBio 9:e00221-18. https://doi.org/10.1128/mBio.00221-18.).
(§1) In carrying out the in vitro experiments, vero E6 cells (an African green monkey kidney cell line) were infected with SARS-CoV2 at a multiplicity of infection of 0.5 for 1 hour. The cells were washed with PBS and then incubated in OPTI-MEM (Invitrogen) medium with or without various concentrations of the following drug candidates: Artemether (from BiopharmaRx) Hydroxychloroquine (from Sigma Aldrich), Atazanavir (from Sigma Aldrich), and Efavirenz (from Sigma Aldrich), Fosamprenavir Calcium (from Sigma Aldrich), Saquinavir (from Sigma Aldrich) and Remdesivir (from AOBIOUS, INC., USA)

A short description of data set [2]: Peak Inhibitory Concentration (Threshold) after oral administration. The protocol: It is noted that the Peak Inhibitory Concentration (Threshold) of Artemether and Remdesivir were at 120 minutes after oral administration. The Peak Inhibitory Concentration (Threshold) of Lumefantrine was at 60 minutes after oral administration.
The conditions of data set [3]: cited from earlier work.
Data set [4] is described as follows: Artemether via nasal delivery system in vivo. As to conditions: administered locally via nasal delivery system in vivo.
The test system of data set [5] is SARS-CoV2. Description: Drug added to Vero E6 cells immediately after SARS-CoV2 adsorption, indirect immunofluorescence after 24 hours. It counts as cell-based. Particulars: for inhibition: added after the initiation of infection; for IC50: Vero E6 cells. The protocol: as §1
(§2) Immunofluorescence staining was performed with SARS-CoV2-specific hyperimmune mouse ascitic fluid (HMAF) followed by anti-mouse fluorescein-coupled antibody.
The antiviral properties of artemether on SARS-CoV2 after the initiation of infection were studied. Vero E6 cells were infected with the virus and fresh medium supplemented with various concentrations of artemether was added immediately after virus adsorption. Infected cells were incubated for an additional 24 hours, after which the presence of virus antigens was analyzed by indirect immunofluorescence analysis. When artemether was added after the initiation of infection, there was a dramatic dose dependent decrease in the number of virus antigen-positive cells. […] A half-maximal inhibitory effect was estimated to occur at 16.5±1.0 μM artemether. […] (FIG. 2).

Data set [6] can be described thus: Dissolution test of Artemether/Lumefantrine-Remdesivir soft gel capsule. Particulars: 0.1 N. HCl with 3% Benzalkonium Chloride; for % Cumulative Drug Release: 60 minute time frame. It is filed as physicochemical. The source says: The soft gel capsule of Artemether and Lumefantrine is comprised: Artemether 4 to 5% w/w, Lumefantrine 20-24% w/w, Remdesivir 18-20%, non-aqueous vehicle 15-20% w/w, preservative less than 1% w/w, viscosity imparting agent 15-20% w/w, suspending agent 1 to 5% w/w and emulsifying agent 1 to 3% w/w and a process to manufacture the said preparation comprising of the following steps as given in the above Patent. • (a) Preservatives and Solid Suspending Agents were milled and sifted. • (b) Non-aqueous vehicle, viscosity imparting agent and liquid suspending agents were filtered to remove the foreign particles • (c) Additional steps for mixing preservatives and suspending agents: • (i) Preservatives were dissolved in non-aqueous vehicle; • (ii) Emulsifying agents were warmed and/or melted and added into mixture in (i) above; • (iii) Viscosity imparting agent is added to mixture of (ii) above and the resultant mixture is stirred. • (iv) Suspending agent is added and mixed with the mixture in (iii) above; and • (v) The mixture of (a) above and (c) (iv) above was homogenized. • (d) The mixture in (v) above was the encapsulated in soft gelatin.
Drug dissolution testing is routinely used to provide critical in vitro drug release information for both quality control purposes to predict in vivo drug release profiles.
The media for dissolution test was 0.1 N. HCl with 3% Benzalkonium Chloride.

Data set [7] has as its system SARS-CoV2. The data set can be described thus: Drug pretreatment of Vero E6 cells prior to SARS-CoV2 infection, indirect immunofluorescence. It counts as cell-based. The method, then:
as §1, §2
Experiments were carried out to determine the impact of artemether treatment on SARS-CoV2 infection. Permissive Vero E6 cells were pre-treated with various concentrations of artemether (0.1-50 μM) for 18-24 hours prior to virus infection. Cells were then infected with SARS-CoV2, and virus antigens were visualized by indirect immunofluorescence. For quantitative purposes, we counted the number of cells stained positive from three random locations on a slide. The average number of positively stained control cells was scored as 100% and was compared with the number of positive cells observed under various artemether concentrations. Pretreatment with 0.1, 1, 10, 20, 30, 40 and 50 μM artemether reduced infectivity by 4%, 12%, 32%, 45%, 63%, 92% and 100% respectively. Reproducible results were obtained from three independent experiments.

A further data set deals with COVID-19. Particulars: preliminary results, cited from earlier work.
A further data set deals with severe COVID-19. Particulars: cited from earlier work.
The conditions of data set [8]: in vivo; cited from earlier work.
The mark [9] stands for this setting: pretreatment 18-24 hours prior to virus infection, 0.1 μM.
Setting [10] is: pretreatment 18-24 hours prior to virus infection, 1 μM.
The mark [11] stands for this setting: pretreatment 18-24 hours prior to virus infection, 10 μM.
[12] abbreviates: pretreatment 18-24 hours prior to virus infection, 20 μM.

Turning to `COC(=O)NC(C(=O)NN(Cc1ccc(-c2ccccn2)cc1)C[C@H](O)[C@H](Cc1ccccc1)NC(=O)[C@@H](NC(=O)OC)C(C)(C)C)C(C)(C)C` (stereo partly drawn) [Atazanavir, methyl N-[(1S)-1-{N′-[(2S,3S)-2-hydroxy-3-[(2S)-2-[(methoxycarbonyl)amino]-3,3-dimethylbutanamido]-4-phenylbutyl]-N′-{[4-(pyridin-yl)phenyl]methyl} hydrazinecarbonyl}-2.2-dimethylpropyl]carbamate], in the data set on SARS-CoV2 [1], the “inhibition by time of addition” value is on record as “maximal inhibition”.
Regarding “(1R.4S,5R.8S.9R, 10S, 12R, 13R)-10-methoxy-1,5,9-trimethyl-11,14,15,16-tetraoxatetracyclo[10.3. 1.04, 13.08, 13]hexadecane [Artemether]”, the “time of Peak Inhibitory Concentration (Threshold)” value in data set [2] stood at 120 min. Besides, the “solubility in water (words)” value in data set [3] is on record as “sparingly soluble”. Further, the “absorption and bioavailability, nasal vs systemic administration” value in data set [4] is listed as “adsorbed quickly with more bioavailability”. In the data set with SARS-CoV2 [5] (40-100 μM concentrations), the inhibition is reported as 71-96%. This molecule also gave a reduced the infection in the data set on SARS-CoV2 [5] (approximately 10 μM added immediately after virus adsorption, 24 hours) of 40%. In the data set with SARS-CoV2 [5] (drug added immediately after virus adsorption, estimated, read-out: half-maximal inhibitory effect), the IC50 was 16500 ± 1000 nM. In addition, the “% Cumulative Drug Release” value in data set [6] stood at 92.3%. For the same molecule, the “% of Drug Release in a Dissolution Test” value in data set [6] (sample time 30 minute) was determined as 47.3%; in [6] (sample time 60 minute) it was 72.25%; in data set [6] (sample time 90 minute), 88.7%; in data set [6] (sample time 120 minute), 93.8%. Moreover, the reduced infectivity worked out at 4% in the data set on SARS-CoV2 [7] (setting [9]); 12% in the data set with SARS-CoV2 [7] (setting [10]); 32% in the data set with SARS-CoV2 [7] (setting [11]); 45% in the data set with SARS-CoV2 [7] (setting [12]); 63% in the data set on SARS-CoV2 [7] (pretreatment 18-24 hours prior to virus infection, 30 μM); 92% in the data set on SARS-CoV2 [7] (pretreatment 18-24 hours prior to virus infection, 40 μM). In addition, the reduced infectivity with SARS-CoV2 [7] (pretreatment 18-24 hours prior to virus infection, 50 μM) was 100%. Moreover, the “inhibition by time of addition” value with SARS-CoV2 [1] is recorded as “maximal inhibition”.
With `CCC(CC)COC(=O)[C@H](C)N[P@](=O)(OC[C@H]1O[C@@](C#N)(c2ccc3c(N)ncnn23)[C@H](O)[C@@H]1O)Oc1ccccc1` [Remdesivir, 2-ethylbutyl (2S)-2-[[[(2R,3S,4R,5R)-5-(4-aminopyrrolo[2,1-f][1,2,4]triazin-7-yl)-5-cyano-3,4-dihydroxyoxolan-2-yl]methoxy-phenoxyphosphoryl]amino]propanoate], the “faster time to recovery than placebo” value with COVID-19 (1063 patients, p<0.001) is listed as 31%. In addition, in the data set with COVID-19 (1063 patients), the “median time to recovery” value was 11 days. The mortality rate in the data set on COVID-19 (p=0.059 vs placebo) is 8.0%. Further, in data set [2], the “time of Peak Inhibitory Concentration (Threshold)” value stood at 120 min. Also, the solubility in water in data set [3] is 330 µg/mL (≈ 548 µM). Moreover, the “solubility in water (words)” value in data set [3] was “sparingly soluble”. In addition, the inhibition in the data set with SARS-CoV2 [5] (5-50 μM concentrations) is reported as 68%-96%. Moreover, the IC50 in the data set with SARS-CoV2 [5] (Severe acute respiratory syndrome coronavirus 2, Vero C1008, drug added after the initiation of infection, read-out: concentration that reduced the infection by 50%) is around 2400 nM; in the data set on SARS-CoV2 [5] (Severe acute respiratory syndrome coronavirus 2, Vero C1008, drug added immediately after virus adsorption, estimated, read-out: half-maximal inhibitory effect) it was 2400 ± 1000 nM. Further, in [6], the “% Cumulative Drug Release” value is on record as 91.7%. Also, the “% of Drug Release in a Dissolution Test” value in data set [6] (sample time 30 minute) amounted to 52.6%; in data set [6] (sample time 60 minute), 73.4%; in data set [6] (sample time 90 minute), 85.8%; in data set [6] (sample time 120 minute) it was 92.6%. In addition, the reduced infectivity with SARS-CoV2 [7] (setting [9]) turned out to be 7%; in the data set on SARS-CoV2 [7] (setting [10]), 21%; in the data set with SARS-CoV2 [7] (setting [11]), 63%; in the data set on SARS-CoV2 [7] (setting [12]) it was 96%; in the data set on SARS-CoV2 [7] (pretreatment prior to virus infection, 5 μM), 42%; in the data set with SARS-CoV2 [7] (pretreatment prior to virus infection, 15 μM) it was 84%. For the same molecule, the reduced infectivity in the data set with SARS-CoV2 [7] (pretreatment prior to virus infection, 25 μM) was 100%. Besides, the “stopped early because of adverse events” value with severe COVID-19 (adult patients admitted to hospital for severe COVID-19, 237 enrolled) is reported as 18 patients; in the data set with severe COVID-19 (share of patients, adult patients with severe COVID-19) it was 12%. Moreover, in the data set on severe COVID-19 (adult patients admitted to hospital for severe COVID-19), the clinical benefits result is “not associated with statistically significant clinical benefits”.
As for `CCCCN(CCCC)CC(O)c1cc(Cl)cc2c1-c1ccc(Cl)cc1/C2=C/c1ccc(Cl)cc1` (centres unmarked) [Lumefantrine], the “time of Peak Inhibitory Concentration (Threshold)” value in data set [2] was determined as 60 min. Moreover, in [3], the “solubility in water (words)” value is “insoluble”.
The LD50 is the dose expected to kill half of the subjects tested. As for Chitosan, the median lethal dose (LD50) in data set [8] was above 4000 mg/kg.
